Test results: patent US10822337B2, “TGF-β inhibitorC” (Rigel Pharmaceuticals, Inc., priority 2015, dated 2020)

Tests used:
[1] = test system: GDF8 signaling (GDF pSMAD, MPC11); assay: AlphaScreen SureFire SMAD3 (p-Ser423/425) assay, inhibition of GDF8 signaling; type: cell-based; conditions: Mus musculus, MPC-11, p-SMAD-3 (Ser423/425) in cell lysate after GDF8 stimulation
[2] = test system: TGF-β signaling (TGF-β pSMAD, MPC-11); assay: AlphaScreen SureFire SMAD3 (p-Ser423/425) assay, inhibition of TGF-β signaling; type: cell-based; conditions: Mus musculus, p-SMAD-3 (Ser423/425) in cell lysate after TGF-β stimulation
How it was run: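 Phosphorylation of endogenous SMAD-3 at Ser423/425 was quantified with an AlphaScreen SureFire assay. Cells were exposed to compound for about 10 minutes, stimulated with TGF-β, and lysed in 1× Lysis Buffer. Lysate (5 μL) was combined with Reaction/Activation buffer plus Acceptor beads for 2 hours, then Donor beads for 1½ hours, and read on a plate reader.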

Row | SMILES | IC50 [1] [nM] | IC50 [2] [nM]
1 | FC(F)(F)Oc1cccc(-c2nn3c(c2-c2ccc4nccnc4c2)CCC3)c1 [Compound 126, 6-(2-(3-Trifluoromethoxyphenyl)-5,6-dihydro-4H-pyrrolo[1,2-b]pyrazol-3-yl)quinoxaline] | 156 | 222
2 | FC(F)(F)Oc1cccc(-c2nn3c(c2-c2ccc4ncnn4c2)CCC3)c1 [Compound 127, 6-(2-(3-Trifluoromethoxyphenyl)-5,6-dihydro-4H-pyrrolo[1,2-b]pyrazol-3-yl)-[1,2,4]triazolo[1,5-a]pyridine] | 36.2 | 70.8
3 | FC(F)(F)Oc1cccc(-c2nn3c(c2-c2ccc4sncc4c2)CCC3)c1 [Compound 128, 5-(2-(3-Trifluoromethoxyphenyl)-5,6-dihydro-4H-pyrrolo[1,2-b]pyrazol-3-yl)benzo[d]isothiazole] | 439 | 677
4 | Fc1ccc(-c2nn3c(c2-c2ccc4cn[nH]c4c2)CCC3)c(F)c1F [Compound 129, 6-(2-(2,3,4-Trifluorophenyl)-5,6-dihydro-4H-pyrrolo[1,2-b]pyrazol-3-yl)-1H-indazole] | 346 | 1640
5 | Fc1ccc(-c2nn3c(c2-c2ccc4nccn4c2)CCC3)c(F)c1F [Compound 130, 6-(2-(2,3,4-Trifluoropehnyl)-5,6-dihydro-4H-pyrrolo[1,2-b]pyrazol-3-yl)imidazo[1,2-a]pyridine] | 319 | 1400
6 | Fc1ccc(-c2nn3c(c2-c2ccc4ncsc4c2)CCC3)c(F)c1F [Compound 131, 6-(2-(2,3,4-Trifluorophenyl)-5,6-dihydro-4H-pyrrolo[1,2-b]pyrazol-3-yl)benzo[d]thiazole] | 286 | 946
7 | Fc1ccc(-c2nn3c(c2-c2ccc4nccnc4c2)CCC3)c(F)c1F [Compound 132, 6-(2-(2,3,4-Trifluorophenyl)-5,6-dihydro-4H-pyrrolo[1,2-b]pyrazol-3-yl)quinoxaline] | 910 | 2340
8 | Fc1ccc(-c2nn3c(c2-c2ccc4ncnn4c2)CCC3)c(F)c1F [Compound 133, 6-(2-(2,3,4-Trifluorophenyl)-5,6-dihydro-4H-pyrrolo[1,2-b]pyrazol-3-yl)-[1,2,4]triazolo[1,5-a]pyridine] | 247 | 701
9 | Fc1ccccc1-c1nn2c(c1-c1ccc3cn[nH]c3c1)CCC2 [Compound 134, 6-(2-(2-Fluorophenyl)-5,6-dihydro-4H-pyrrolo[1,2-b]pyrazol-3-yl)-1H-indazole] | 901 | 6060
10 | Fc1ccccc1-c1nn2c(c1-c1ccc3nccn3c1)CCC2 [Compound 135, 6-(2-(2-Fluorophenyl)-5,6-dihydro-4H-pyrrolo[1,2-b]pyrazol-3-yl)imidazo[1,2-a]pyridine] | 924 | 2150
11 | Fc1ccccc1-c1nn2c(c1-c1ccc3nccnc3c1)CCC2 [Compound 136, 6-(2-(2-Fluorophenyl)-5,6-dihydro-4H-pyrrolo[1,2-b]pyrazol-3-yl)quinoxaline] | 613 | 2360
12 | Fc1ccccc1-c1nn2c(c1-c1ccc3ncnn3c1)CCC2 [Compound 137, 6-(2-(2-Fluorophenyl)-5,6-dihydro-4H-pyrrolo[1,2-b]pyrazol-3-yl)-[1,2,4]triazolo[1,5-a]pyridine] | 144 | 660
13 | Fc1c(Cl)cccc1-c1nn2c(c1-c1ccc3[nH]ncc3c1)CCC2 [Compound 138, 5-(2-(3-Chloro-2-fluorophenyl)-5,6-dihydro-4H-pyrrolo[1,2-b]pyrazol-3-yl)-1H-indazole] | 731 | 1470
14 | Fc1c(Cl)cccc1-c1nn2c(c1-c1ccc3nccn3c1)CCC2 [Compound 139, 6-(2-(3-Chloro-2-fluorophenyl)-5,6-dihydro-4H-pyrrolo[1,2-b]pyrazol-3-yl)imidazo[1,2-a]pyridine] | 359 | 874
15 | Fc1c(Cl)cccc1-c1nn2c(c1-c1ccc3ncsc3c1)CCC2 [Compound 140, 6-(2-(3-Chloro-2-fluorophenyl)-5,6-dihydro-4H-pyrrolo[1,2-b]pyrazol-3-yl)benzo[d]thiazole] | 504 | 842
16 | Fc1c(Cl)cccc1-c1nn2c(c1-c1ccc3ncnn3c1)CCC2 [Compound 141, 6-(2-(3-Chloro-2-fluorophenyl)-5,6-dihydro-4H-pyrrolo[1,2-b]pyrazol-3-yl)-[1,2,4]triazolo[1,5-a]pyridine] | 208 | 703
17 | Fc1ccc(-c2nn3c(c2-c2ccc4[nH]ncc4c2)CCC3)cc1Cl [Compound 142, 5-(2-(3-Chloro-4-fluorophenyl)-5,6-dihydro-4H-pyrrolo[1,2-b]pyrazol-3-yl)-1H-indazole] | 153 | 344
18 | Fc1ccc(-c2nn3c(c2-c2ccc4cn[nH]c4c2)CCC3)cc1Cl [Compound 143, 6-(2-(3-Chloro-4-fluorophenyl)-5,6-dihydro-4H-pyrrolo[1,2-b]pyrazol-3-yl)-1H-indazole] | 221 | 512
19 | Fc1ccc(-c2nn3c(c2-c2ccc4nccn4c2)CCC3)cc1Cl [Compound 144, 6-(2-(3-Chloro-4-fluorophenyl)-5,6-dihydro-4H-pyrrolo[1,2-b]pyrazol-3-yl)imidazo[1,2-a]pyridine] | 100 | 343
20 | Fc1ccc(-c2nn3c(c2-c2ccc4ncsc4c2)CCC3)cc1Cl [Compound 145, 6-(2-(3-Chloro-4-fluorophenyl)-5,6-dihydro-4H-pyrrolo[1,2-b]pyrazol-3-yl)benzo[d]thiazole] | 194 | 572
21 | Fc1ccc(-c2nn3c(c2-c2ccc4ncccc4c2)CCC3)cc1Cl [Compound 146, 6-(2-(3-Chloro-4-fluorophenyl)-5,6-dihydro-4H-pyrrolo[1,2-b]pyrazol-3-yl)quinoline] | 1040 | 2730
22 | Fc1ccc(-c2nn3c(c2-c2ccc4nccnc4c2)CCC3)cc1Cl [Compound 147, 6-(2-(3-Chloro-4-fluorophenyl)-5,6-dihydro-4H-pyrrolo[1,2-b]pyrazol-3-yl)quinoxaline] | 204 | 687
23 | Fc1ccc(-c2nn3c(c2-c2ccc4ncnn4c2)CCC3)cc1Cl [Compound 148, 6-(2-(3-Chloro-4-fluorophenyl)-5,6-dihydro-4H-pyrrolo[1,2-b]pyrazol-3-yl)-[1,2,4]triazolo[1,5-a]pyridine] | 98.4 | 311
24 | Fc1ccc(-c2nn3c(c2-c2ccc4[nH]ncc4c2)CCC3)cc1OC(F)(F)F [Compound 150, 5-(2-(4-Fluoro-3-trifluoromethoxyphenyl)-5,6-dihydro-4H-pyrrolo[1,2-b]pyrazol-3-yl)-1H-indazole] | 310 | 1320
25 | Fc1ccc(-c2nn3c(c2-c2ccc4nccn4c2)CCC3)cc1OC(F)(F)F [Compound 151, 6-(2-(4-Fluoro-3-trifluoromethoxyphenyl)-5,6-dihydro-4H-pyrrolo[1,2-b]pyrazol-3-yl)imidazo[1,2-a]pyridine] | 389 | 1160
26 | Fc1ccc(-c2nn3c(c2-c2ccc4ncsc4c2)CCC3)cc1OC(F)(F)F [Compound 152, 6-(2-(4-Fluoro-3-trifluoromethoxyphenyl)-5,6-dihydro-4H-pyrrolo[1,2-b]pyrazol-3-yl)benzo[d]thiazole] | 486 | 1750
